In PubChem BioAssay (NCI) one finds GI50 and TGI data, which are given here for eleven compounds.

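Values below derive from 48-hour exposures of cells grown in 96-well plates, with endpoints linearly interpolated between the two concentrations bracketing the appropriate inhibition level. GI50 is the concentration that inhibits growth by half. TGI denotes the concentration required for complete inhibition of growth.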 Bounds are passed on as bounds.

Test systems include CAKI-1 renal; COLO 205 colon; EKVX NSCLC; HOP-62 NSCLC; K-562 leukemia; M14 melanoma; NCI-H460 lung; OVCAR-4 ovarian; CCRF-CEM leukemia; NCI-H226 lung.
Assay in all cases: growth of human tumour cells (NCI), 48 h

Consider `CC(=O)C1=C([O-])C(C)OC1=O.CC(=O)C1=C([O-])C(C)OC1=O.[NH-]C1CCCC[C@H]1[NH-].[Pt+4]` (stereo not drawn), for which the GI50 is 35.9 µM in the test with CAKI-1 renal; 35.1 µM with COLO 205 colon; over 100 µM in the test on EKVX NSCLC; over 100 µM in the test on HOP-62 NSCLC; 61.2 µM in the test with K-562 leukemia; 85.3 µM with M14 melanoma. Also, the GI50 is 30.5 µM in the test on NCI-H460 lung and 88.9 µM in the test with OVCAR-4 ovarian. Moreover, the TGI in the test on CAKI-1 renal, in the test with COLO 205 colon, in the test on EKVX NSCLC, with HOP-62 NSCLC, in the test with K-562 leukemia and in the test with M14 melanoma was over 100 µM each time. Moreover, the TGI in the test on NCI-H460 lung and in the test with OVCAR-4 ovarian was over 100 µM throughout.
Turning to `N#CC1C(N)=NNC12Nc1ccccc1N2` (stereo not drawn), the GI50 with CAKI-1 renal is 11.7 µM; with COLO 205 colon, 16.5 µM; in the test on EKVX NSCLC it was 14.9 µM; with HOP-62 NSCLC, 64.3 µM; in the test with K-562 leukemia it was 14 µM; with M14 melanoma, 65.9 µM. Besides, the GI50 in the test with NCI-H460 lung is 13.6 µM; in the test on OVCAR-4 ovarian, 18 µM. Further, the TGI was 74.5 µM in the test on CAKI-1 renal; 48.9 µM in the test on COLO 205 colon; 64.6 µM with EKVX NSCLC; over 100 µM in the test with HOP-62 NSCLC; 78.6 µM in the test on K-562 leukemia; over 100 µM in the test with M14 melanoma. The results for the TGI with NCI-H460 lung and in the test on OVCAR-4 ovarian were 38.1 µM and 92.3 µM, respectively.
Turning to `FC(F)(F)c1ccc2nc(Nc3ccc(Cl)c(Cl)c3)c(-c3ccccc3)nc2c1`, the TGI in the test with CCRF-CEM leukemia, with COLO 205 colon, in the test with EKVX NSCLC, with HOP-62 NSCLC, with NCI-H226 lung and in the test with NCI-H460 lung was over 100 µM in each case.
As to `Nc1nc(Nc2cccc(F)c2)nc2ccccc12`, the GI50 with CAKI-1 renal was 16 µM; in the test on CCRF-CEM leukemia, 24.6 µM; with COLO 205 colon it was 15.9 µM; with HOP-62 NSCLC, 17.1 µM; in the test on K-562 leukemia, 24.9 µM; in the test with NCI-H226 lung, 35 µM. The GI50 is 20.1 µM in the test on NCI-H460 lung and 22.9 µM in the test with OVCAR-4 ovarian. Besides, the TGI in the test on CAKI-1 renal was 44.9 µM; in the test on CCRF-CEM leukemia, over 100 µM; in the test with COLO 205 colon, 34 µM; in the test on HOP-62 NSCLC, 38.5 µM; in the test on K-562 leukemia, over 100 µM; with NCI-H226 lung, over 100 µM. For the same compound, the TGI with NCI-H460 lung is 57.3 µM; with OVCAR-4 ovarian, over 100 µM.
`O=[N+]([O-])c1nccn1CC1OC(n2ccnc2[N+](=O)[O-])C(O)C(O)C1O` (stereo not drawn): the TGI in the test on CCRF-CEM leukemia, in the test with COLO 205 colon, in the test on EKVX NSCLC, in the test with HOP-62 NSCLC, in the test on K-562 leukemia and in the test on M14 melanoma was over 100 µM throughout. Besides, the TGI in the test on NCI-H226 lung and in the test with NCI-H460 lung was over 100 µM each time.
For `COc1cc(Oc2c(O)c(C)c(OC)c(C(C)=O)c2O)c(C(C)=O)c(O)c1C`, the TGI with CAKI-1 renal was over 100 µM; in the test on CCRF-CEM leukemia, over 100 µM; in the test with COLO 205 colon it was over 100 µM; in the test with HOP-62 NSCLC, 83.1 µM; in the test on M14 melanoma, over 100 µM; in the test with NCI-H226 lung, over 100 µM. Further, the TGI in the test on NCI-H460 lung and in the test on OVCAR-4 ovarian was over 100 µM in each case.
As for `CC[CH2][Pb]([CH2]CC)([CH2]CC)[NH]S(=O)(=O)c1ccc(C)cc1`, the GI50 with CCRF-CEM leukemia is 0.0371 µM; in the test on COLO 205 colon, 0.0236 µM; in the test with EKVX NSCLC, 0.0739 µM; with HOP-62 NSCLC, 0.0909 µM; with M14 melanoma it was 0.0616 µM; with NCI-H460 lung it was 0.137 µM. Besides, the GI50 in the test on OVCAR-4 ovarian is 0.0682 µM. Also, the TGI in the test on CCRF-CEM leukemia was 0.23 µM; in the test with COLO 205 colon it was 0.0528 µM; in the test on EKVX NSCLC it was 0.317 µM; in the test with HOP-62 NSCLC, 0.422 µM; in the test on M14 melanoma, 0.219 µM; with NCI-H460 lung, 0.277 µM. The same compound showed a TGI in the test with OVCAR-4 ovarian of 0.307 µM.
`C/C=C(/CCCCNCCCC)[Si](C)(C)C`: the TGI turned out to be 73.4 µM in the test with CCRF-CEM leukemia; 27.9 µM with COLO 205 colon; 25.8 µM in the test on EKVX NSCLC; 45 µM in the test on K-562 leukemia; 27.7 µM with M14 melanoma; 31.9 µM in the test on NCI-H460 lung.
Take `CCCCC[C@H]1C/C=C2/C(=O)C(Cl)=C[C@@H]2C/C=C\CCCC(=O)O[C@@H](CCCCC)C/C=C2/C(=O)C(Cl)=C[C@@H]2C/C=C\CCCC(=O)O1`: the GI50 in the test on CCRF-CEM leukemia is 0.145 µM; in the test with COLO 205 colon, 0.316 µM; in the test with EKVX NSCLC it was 0.543 µM; in the test with HOP-62 NSCLC it was 0.416 µM; in the test with K-562 leukemia, 0.314 µM; with M14 melanoma it was 0.39 µM. Further, the GI50 is 0.38 µM in the test with NCI-H226 lung, 0.405 µM in the test with NCI-H460 lung and 0.461 µM in the test with OVCAR-4 ovarian. In addition, the TGI came out at 1.76 µM with CCRF-CEM leukemia; 0.687 µM in the test with COLO 205 colon; 1.76 µM in the test on EKVX NSCLC; 1.01 µM with HOP-62 NSCLC; 2.29 µM in the test with K-562 leukemia; 1.07 µM with M14 melanoma. The TGI with NCI-H226 lung was 0.86 µM; with NCI-H460 lung, 1.02 µM; with OVCAR-4 ovarian it was 1.79 µM.
As for `COc1ccc2c(C(=O)O)cc3cc(OC)c(OC)cc3c2c1`, the TGI with CCRF-CEM leukemia, in the test on COLO 205 colon, in the test on EKVX NSCLC, with K-562 leukemia, in the test on M14 melanoma and in the test with NCI-H226 lung was over 100 µM each time. The compound also returned a TGI in the test on NCI-H460 lung of over 100 µM.
Consider `Cc1cn2c(/C=N/N/C(N)=N\N)c(-c3ccc(Cl)c([N+](=O)[O-])c3)nc2s1`, for which the GI50 is 8.49 µM with CAKI-1 renal, 3.99 µM with EKVX NSCLC, 4.98 µM in the test on HOP-62 NSCLC and 2.17 µM in the test with K-562 leukemia. The TGI with CAKI-1 renal is 17.6 µM; in the test on EKVX NSCLC, 15.6 µM; with HOP-62 NSCLC, 15.9 µM; in the test on K-562 leukemia, over 50 µM.
